Experimental data: ChEMBL document CHEMBL3507680, “University of Dundee, Gates Library screen for HepG2 cell viability”

Test: Human HepG2 cell viability assay in 384 well format
Type: toxicity, cell-based
Parameters: dose 125 nL, time 70.5 hour; concentration not given beside the values
Details: HepG2 cells, read-out: Inhibition

SMILES	cytotoxicity at 70.5 h
COC(=O)NCc1ccc(NC(=O)CC2=CCCCC2)cc1	0.0251%
COCC(NC(=O)c1ccoc1)c1ccc(C)o1 (configuration not stated)	-2.43%
CCC(C)(NCc1ncc(C(C)C)o1)c1nccs1 (configuration not stated)	1.37%
CCC1CN(C(=O)COc2ccc(C)nc2)CCO1 (configuration not stated)	0.326%
CC(Cn1cccn1)NC(=O)NCCCN1CCc2ccccc21 (configuration not stated)	-0.512%
CC(=O)NCCCNCc1cc(F)ccc1Br	15%
CCOC(=O)NC1CCCN(Cc2ccc(-n3cncn3)c(C)c2)C1 (configuration not stated)	-0.7%
CN(C)C(=O)COc1ccccc1CN1CCOC2(CCCC2)C1	0.31%
CN1CCN(c2ccc(NC(=O)c3ccccn3)c(C(F)(F)F)c2)CC1	-5.99%
CCN1CCN(CC(O)c2cc(Cl)ccc2Cl)CC1 (configuration not stated)	-8.52%
Cc1ccc(-c2nn3c(nc2=O)-c2ccccc2NC3C(=O)O)cc1C (configuration not stated)	3.4%
OCCN1CCN(CC(O)c2cc(Cl)ccc2Cl)CC1 (configuration not stated)	-3.64%
COc1ccccc1C(C)Nc1ncc(C(N)=O)cc1Cl (configuration not stated)	-9.04%
COc1ccc(C(C)Nc2ncc(C(N)=O)cc2Cl)cc1OC (configuration not stated)	-10.8%
O=C(CSc1nnc[nH]1)NCc1sccc1Br	-5.23%
Cc1ccccc1C(NC(=O)CNC(=O)c1ccoc1C)C(C)C (configuration not stated)	11.7%
Cc1cc(N2CCCC(OC(=O)CCc3cnn(C)c3)C2)nc(C)n1 (configuration not stated)	-11.2%
Cc1cc(CS(=O)(=O)NC2CCCc3ccccc32)on1 (configuration not stated)	-1.17%
CN(C)CCN(C)C(=O)Nc1cc(F)cc(N2CCCC2)c1	-6.32%
CC(C#N)NS(=O)(=O)c1ccc2c(c1)N(C)CCC2 (configuration not stated)	-0.913%
CC(=O)NS(=O)(=O)c1ccc2c(c1)N(C)CCC2	-5.49%

SMILES	cytotoxicity at 70.5 h
Cc1cccc(NS(=O)(=O)c2ccc(C#N)nc2)c1C#N	-4.92%
CCOCC(=O)N(C)c1ccc(F)c(Cl)c1	-2.55%
CN1CCCc2ccc(S(=O)(=O)NC(=O)C3CC=CC3)cc21	-3.77%
Cc1noc(C)c1CN(C)C(C)c1cccs1 (configuration not stated)	-3.21%
Cc1ccc(NC(=O)N2CCCC(O)C2)c(Br)c1 (configuration not stated)	6.64%
CC(C)(C)NC(=O)C1CSCN1C(=O)CCc1ccco1 (configuration not stated)	-0.786%
CC(C)NC(=O)Nc1ccc(-c2nc(C(C)C)no2)cc1	-8.44%
CC(C)N(C(=O)CCc1cccc(F)c1)C1CCOCC1	-4.3%
CC(C)c1noc(-c2ccc(NC(=O)NCC(O)C(C)C)cc2)n1 (configuration not stated)	-7.09%
CC(=O)N(C)Cc1cccc(NC(=O)N(C)Cc2nccs2)c1	-4.8%
CCc1cnc(NC(=O)NC2CCN(C3CCCC3)CC2)s1	-7.06%
O=C(c1c[nH]c2ccccc2c1=O)N1CCSCC1	-6.3%
O=C(c1c(F)cc(Br)cc1F)N1CCc2cnccc21	-5.62%
O=C(c1c(O)cc(F)cc1F)N1CCc2cnccc21	0.9%
CC(C)CSCCCNC(=O)C1CCOC1 (configuration not stated)	-5.76%
Cc1cc(CNCCNS(C)(=O)=O)sc1Br	4.81%
CC(NCc1cccs1)c1ccc(OCc2nccn2C)cc1 (configuration not stated)	-4.31%
CC(=O)N(C)Cc1cccc(NC(=O)N(C)CCc2cccs2)c1	11.4%
Cc1cccc(CC(=O)Nc2cccnc2N2CCC(CO)CC2)c1	-2.43%
Cc1[nH]ncc1CCCNC(=O)N1CCOC(C)C1 (configuration not stated)	-5.97%
COCCC1(CNC(=O)NCC2CN(C)CCN2C)CCC1 (configuration not stated)	-2.66%

SMILES	cytotoxicity at 70.5 h
Cc1cc(CN2CCN(C(=O)NCCCc3cn[nH]c3C)CC2)on1	-4.02%
CSCCC(NC(N)=O)C(=O)NCc1c(C)nn(-c2ccccc2)c1C (configuration not stated)	-4.27%
CCNC(=O)NC(=O)CN1CCOC(c2cccc(Br)c2)C1 (configuration not stated)	-8.56%
Cc1cccc(C(C)(C)CNC(=O)CN(C)S(=O)(=O)c2cccnc2)c1	-15.3%
CN(CCc1nc2ccccc2c(=O)[nH]1)CCC(F)(F)F	-6.6%
CC(=O)N1CCC(NC(=O)NCCCc2cn[nH]c2C)CC1	0.436%
NS(=O)(=O)c1cnc(NCC2(c3cccc(F)c3)CCOCC2)s1	-0.912%
NS(=O)(=O)c1cnc(NCC2(c3ccccc3)CCC2)s1	-2.17%
CCN1CCNC(=O)C12CCN(C(=O)Cc1ccccn1)CC2	-1.44%
COc1cc(N2CCC3(CC2)CN(CCO)c2ccccc23)ncn1	-0.577%
O=c1ccc2c([nH]1)CCC(NS(=O)(=O)C1CC1)C2 (configuration not stated)	-4.74%
COCCn1c2c(ccc1=O)CCN(C(=O)C1CC=CC1)CC2	-2.63%
CN(C)Cc1nc(-n2cnc(C(=O)NCC3CC3)c2)n2ccccc12	-3.22%
COCCn1c2c(ccc1=O)CCN(C(=O)NC1CC1)CC2	-3.9%
Cc1ccc2c(n1)N(Cc1cccnc1)CCN(Cc1cnn(C)c1)C2	-2.59%
COCC(=O)N1CCc2ccc(=O)n(CC3CC3)c2CC1	-2.86%
CC(C)NC(=O)N1CCC2(CC1)Cc1ccccc1CNC2=O	-4.51%
Cc1cc(C(=O)NCC2OCCc3cn(CC4CC4)nc32)c(C)[nH]1 (configuration not stated)	-3.07%
COCCn1cc2c(n1)C(CNC(=O)c1cc(C)[nH]c1C)OCC2 (configuration not stated)	-2.66%
CN(C)Cc1nc(-n2cnc(C(=O)NC3CCCC3)c2)n2ccccc12	-3.17%
Cc1nc(CN2CCC3(C2)CN(C(=O)c2conc2C)C3)cs1	-3.94%

SMILES	cytotoxicity at 70.5 h
O=C(c1ccccc1)N1CCOC2CNCC[C@H]21 (some centres not stated)	-7.04%
COc1c(CNC2(c3noc(C)n3)CCC2)c(C(C)C)nn1C	-0.972%
Cc1sc(CN)nc1-c1ccc(Cl)cc1	4.14%
O=C([C@H]1CCCN1)N1CC2(CCNCC2)c2cc(Cl)ccc21	30%
O=C([C@@H]1CSCN1)N1CC2(CCNCC2)c2cc(Cl)ccc21	-3.25%
CCOC1COC2(CCN(C(=O)c3cccc(C)n3)CC2)C1 (configuration not stated)	-0.53%
CNC(=O)[C@H]1C[C@@H]2CN(Cc3csc(C)n3)C[C@@H]2N1S(C)(=O)=O	27.8%
CN(C)CC(=O)N1CCC2(CC1)Cc1ccccc1CN(C)C2=O	23.3%
CC(=O)N1CCC2(CC1)CN(C(=O)[C@@H]1CSCN1)c1ccc(Cl)cc12	1.24%
O=C(c1cscn1)N1CCCC2(CCN2Cc2cccc(F)c2)C1 (configuration not stated)	-0.0272%
O=C(O)[C@]12CCCN(CC3CCOC3)C[C@H]1CN(c1ncccn1)C2 (some centres not stated)	-5.74%
CCOCc1nn(C)c2c1CN(Cc1cccs1)CC2	-7.58%
Cc1nc(CN2CCO[C@@H]3CC(COc4ccccn4)C[C@H]32)cs1 (some centres not stated)	-1.88%
Cc1cc(C(=O)N2CC[C@H]3[C@H](C[C@@H](CN4CCCC4)N3C)C2)c(C)o1	1.81%
c1cnc(N2CCN3C[C@H](Oc4cncnc4)C[C@H]3C2)nc1	-1.15%
CN(C)C(=O)C1CCN(C2CCN(CC3CCC3)CC2)CC1	-1.7%
Cc1oncc1C(=O)N1CC[C@H]2[C@H](C[C@@H](CN(C)C)N2CC2CC2)C1	-0.907%
CC(C)CC(=O)N1CC[C@H]2N(C)CC[C@@]2(C(=O)Nc2cccnc2)CC1	-9.05%
O=C(O)c1c(-c2cncnc2)ncc2c1CCN(Cc1cccnc1)C2	2.19%
